Source: patent publication US8900783B2, “Electrophotographic photoreceptor, process cartridge, and image forming apparatus” (Fuji Xerox Co., Ltd., priority 2013, dated 2014)
Read-outs that look alike come from different tables or passages of the source.

Assay: Evaluation on solubility with respect to solvent
Type: physicochemical
Settings: organic solvent or mixture, thermodynamic from solid, stirred for one hour, visually checked
Protocol: Here, Compound (C) is a specific non-charge transporting compound which is not the specific position isomer mixture.
First, the Exemplary compounds and Compound (C) are respectively dissolved in tetrahydrofuran, and solubility of the solution is evaluated as follows.
1 g of Compound (C) is added to 10 ml of tetrahydrofuran at 20° C., the mixture is stirred for one hour, and solubility thereof is visually checked. A case where Compound (C) is dissolved is evaluated as A, a case where an insoluble part is slightly observed is evaluated as B, and a case where the solution yields white turbidity is evaluated as C.
In addition, solubility thereof when the solvent is changed from tetrahydrofuran to toluene, xylene, dichloroethane, chloroform, and butyl acetate is evaluated.

solubility at 1 h (1 g added to 10 ml of butyl acetate at 20° C., read-out: Evaluation on solubility Butyl acetate): < 100 mg/mL
solubility at 1 h (1 g added to 10 ml of chloroform at 20° C., read-out: Evaluation on solubility Chloroform): > 100 mg/mL
solubility at 1 h (1 g added to 10 ml of dichloroethane at 20° C., read-out: Evaluation on solubility Dichloroethane): > 100 mg/mL
solubility at 1 h (1 g added to 10 ml of tetrahydrofuran at 20° C., read-out: Evaluation on solubility Tetrahydrofuran): > 100 mg/mL
solubility at 1 h (1 g added to 10 ml of toluene at 20° C., read-out: Evaluation on solubility Toluene): < 100 mg/mL
solubility at 1 h (1 g added to 10 ml of xylene at 20° C., read-out: Evaluation on solubility Xylene): < 100 mg/mL
SMILES: C=Cc1ccc(COc2ccc(C(C)(c3ccc(OCc4ccc(C=C)cc4)cc3)c3ccc(OCc4ccc(C=C)cc4)cc3)cc2)cc1 [Compound (C)]
